The values that follow are results of earlier work, collected in patent US9000029B2, “Proline sulfonamide derivatives as orexin receptor antagonists” (Actelion Pharmaceuticals Ltd., priority 2010, dated 2015).

One data set concerns humans. Conditions: cited from earlier work.
Data set [1] relates to rat. Conditions: cited from earlier work.
Data set [2] relates to rat. Conditions: cited from earlier work. This is another data set of the same source.
Data set [3] deals with rats. Conditions: cited from earlier work.
The test system of data set [4] is rat. Conditions: cited from earlier work. This is another data set of the same source.
In data set [5] the test system is rats. Conditions: treated rats; cited from earlier work.
Data set [6] relates to amyloid precursor protein transgenic mice. Conditions: after acute sleep restriction, APP transgenic mice; cited from earlier work.
Another data set has as its system mouse. Conditions: administered chronically; cited from earlier work.
Data set [7] deals with rats. Conditions: fasted hungry rats exposed to food odors; cited from earlier work.

For `CNC(=O)[C@@H](c1ccccc1)N1CCc2cc(OC)c(OC)cc2[C@@H]1CCc1ccc(C(F)(F)F)cc1` [(2R)-2-{(1S)-6,7-dimethoxy-1-[2-(4-trifluoromethyl-phenyl)-ethyl]-3,4-dihydro-1H-isoquinolin-2-yl}-N-methyl-2-phenyl-acetamide], the “clinical efficacy in primary insomnia” value in the data set with humans is “showed clinical efficacy”. In the data set with rat [1], the “alertness (active wake and locomotion)” value was “decrease alertness”; the “time spent in both REM and NREM sleep” value is reported as “dose-dependently increase”. For the same compound, the “activity in nicotine self-administration model” value with rat [2] was “displayed pharmacological activity”. The “cardiovascular responses to conditioned fear and novelty exposure” value with rats [3] is “attenuated”. The “activity in fear-potentiated startle paradigm” value with rat [4] was “active”. In addition, in the data set on rats [5], the “declarative and non-declarative learning and memory” value is on record as “Intact”. In [6], the Aβ plaque deposition result is on record as “decreased” and the “brain levels of amyloid-beta (Aβ)” value is “decreased”. In addition, in the data set with mouse, the “activity in mouse model of depression” value is recorded as “antidepressant-like activity”. Further, in the data set on rats [7], the “natural activation induced by orexin A” value was “attenuate”.
